# Assay results: patent publication US6841519B1, “Isoxazoline derivatives and herbicides containing the same as the active ingredient” (Kumiai Chemical Industry Co., Ltd., priority 1999, dated 2005)
# Experiments:
# Assay type in all cases: in vivo
# [1] = test system: Echinochloa oryzicola Vasing. (Eo); assay: Test for herbicidal effect by paddy field soil treatment (Test Example 1); conditions: application amount (active ingredient) 100 g/10 a, examined at the 21st day from the treatment, index per Table 40
# Outline: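 Scored on a standard scale at day 21 in the greenhouse: herbicidal effect of wettable powder applied to flooded water (3 cm depth) at 100 g a.i./10 ares, one day after sowing Eo into puddled paddy soil.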
# [2] = test system: Echinochloa crus-galli (L.) Beauv. var. crusgall (Ec); assay: Test for herbicidal effect by upland field soil treatment (Test Example 2), Ec
# Outline: (§1)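 Pre-emergence soil treatment: wettable powder diluted in water and sprayed on soil just sown with Ec and Se seeds, delivering 100 g active ingredient per 10 ares in 100 liters per 10 ares. Herbicidal effect was rated against a fixed scale 21 days later, after greenhouse growth.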
# [3] = test system: Setaria viridis (L.) Beauv. (Se); assay: Test for herbicidal effect by upland field soil treatment (Test Example 2), Se
# Outline: as §1
# [4] = test system: Echinochloa crus-galli (L.) Beauv. var. crusgalli (Ec); assay: Test for herbicidal effect by upland foliage treatment (Test Example 3); conditions: 100 g/10 a active ingredient, examined at 14th day
# Outline: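 Scored 14 days post-spray against a graded standard: greenhouse-grown Ec, 2 weeks old in upland soil, received whole-foliage application of diluted wettable powder (100 g active ingredient per 10 ares, spray volume 100 L per 10 ares).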
# [5] = application amount (active ingredient) 100 g/10 a, examined at the 21st day from the treatment, index per Table 40
# [6] = 100 g/10 a active ingredient, examined at 21st day
Structure (SMILES),Herbicidal effect to Eo [1],"Herbicidal effect to Ec [2, 5]","Herbicidal effect to Se [3, 5]",Herbicidal effect to Ec [4],"Herbicidal effect to Ec [2, 6]","Herbicidal effect to Se [3, 6]"
CC1(C)CC(S(=O)(=O)Cc2ccccc2[N+](=O)[O-])=NO1 [Compound 1-142],5 (A herbicidal effect or phytotoxicity of 90% or more),5 (A herbicidal effect or phytotoxicity of 90% or more),5 (A herbicidal effect or phytotoxicity of 90% or more),4 (A herbicidal effect or phytotoxicity of 70% to less than 90%),–,–
COc1ccccc1CS(=O)(=O)C1=NOC(C)(C)C1 [Compound 1-40],5 (A herbicidal effect or phytotoxicity of 90% or more),5 (A herbicidal effect or phytotoxicity of 90% or more),5 (A herbicidal effect or phytotoxicity of 90% or more),5 (A herbicidal effect or phytotoxicity of 90% or more),–,–
COc1cccc(OC)c1CS(=O)(=O)C1=NOC(C)(C)C1 [Compound 1-535],5 (A herbicidal effect or phytotoxicity of 90% or more),–,–,4 (A herbicidal effect or phytotoxicity of 70% to less than 90%),5 (A herbicidal effect or phytotoxicity of 90% or more),5 (A herbicidal effect or phytotoxicity of 90% or more)
CC(C)Oc1cccc(Cl)c1CS(=O)(=O)C1=NOC(C)(C)C1 [Compound 1-566],5 (A herbicidal effect or phytotoxicity of 90% or more),–,–,4 (A herbicidal effect or phytotoxicity of 70% to less than 90%),5 (A herbicidal effect or phytotoxicity of 90% or more),5 (A herbicidal effect or phytotoxicity of 90% or more)
"CCC1(C)CC([S+]([O-])Cc2c(F)cccc2F)=NO1 (centres unmarked) [Compound 1-199, 5-ethyl-3-(2,6-difluorobenzylsulfinyl)-5-methyl-2-isoxazoline]",5 (A herbicidal effect or phytotoxicity of 90% or more),5 (A herbicidal effect or phytotoxicity of 90% or more),5 (A herbicidal effect or phytotoxicity of 90% or more),4 (A herbicidal effect or phytotoxicity of 70% to less than 90%),–,–
CC1(C)CC(S(=O)(=O)Cc2cccc(C(F)(F)F)c2)=NO1 [Compound 1-158],5 (A herbicidal effect or phytotoxicity of 90% or more),5 (A herbicidal effect or phytotoxicity of 90% or more),5 (A herbicidal effect or phytotoxicity of 90% or more),5 (A herbicidal effect or phytotoxicity of 90% or more),–,–
Cc1c(CS(=O)(=O)C2=NOC(C)(C)C2)cccc1[N+](=O)[O-] [Compound 1-537],5 (A herbicidal effect or phytotoxicity of 90% or more),–,–,4 (A herbicidal effect or phytotoxicity of 70% to less than 90%),5 (A herbicidal effect or phytotoxicity of 90% or more),5 (A herbicidal effect or phytotoxicity of 90% or more)
CC1(C)CC(S(=O)(=O)Cc2cccc(C(F)(F)F)c2F)=NO1 [Compound 1-515],5 (A herbicidal effect or phytotoxicity of 90% or more),–,–,5 (A herbicidal effect or phytotoxicity of 90% or more),5 (A herbicidal effect or phytotoxicity of 90% or more),5 (A herbicidal effect or phytotoxicity of 90% or more)
Cc1ccc(CS(=O)(=O)C2=NOC(C)(C)C2)c(C)c1 [Compound 1-511],5 (A herbicidal effect or phytotoxicity of 90% or more),–,–,5 (A herbicidal effect or phytotoxicity of 90% or more),5 (A herbicidal effect or phytotoxicity of 90% or more),5 (A herbicidal effect or phytotoxicity of 90% or more)
CCC1(C)CC(S(=O)(=O)Cc2ccccc2Cl)=NO1 (centres unmarked) [Compound 1-192],5 (A herbicidal effect or phytotoxicity of 90% or more),5 (A herbicidal effect or phytotoxicity of 90% or more),5 (A herbicidal effect or phytotoxicity of 90% or more),4 (A herbicidal effect or phytotoxicity of 70% to less than 90%),–,–
CC1(C)CC(S(=O)(=O)Cc2ccccc2OC2CCCC2)=NO1 [Compound 1-609],5 (A herbicidal effect or phytotoxicity of 90% or more),–,–,5 (A herbicidal effect or phytotoxicity of 90% or more),5 (A herbicidal effect or phytotoxicity of 90% or more),5 (A herbicidal effect or phytotoxicity of 90% or more)
CC1(C)CC(S(=O)(=O)Cc2ccc(F)cc2F)=NO1 [Compound 1-505],5 (A herbicidal effect or phytotoxicity of 90% or more),–,–,5 (A herbicidal effect or phytotoxicity of 90% or more),5 (A herbicidal effect or phytotoxicity of 90% or more),5 (A herbicidal effect or phytotoxicity of 90% or more)
O=S(=O)(Cc1c(F)cccc1F)C1=NOC2(CCCC2)C1 [Compound 1-383],5 (A herbicidal effect or phytotoxicity of 90% or more),5 (A herbicidal effect or phytotoxicity of 90% or more),4 (A herbicidal effect or phytotoxicity of 70% to less than 90%),4 (A herbicidal effect or phytotoxicity of 70% to less than 90%),–,–
CC1(C2CC2)CC(S(=O)(=O)Cc2c(F)cccc2F)=NO1 (centres unmarked) [Compound 1-378],5 (A herbicidal effect or phytotoxicity of 90% or more),5 (A herbicidal effect or phytotoxicity of 90% or more),5 (A herbicidal effect or phytotoxicity of 90% or more),5 (A herbicidal effect or phytotoxicity of 90% or more),–,–
CC1(C)CC(S(=O)(=O)Cc2c(F)cccc2I)=NO1 [Compound 1-548],5 (A herbicidal effect or phytotoxicity of 90% or more),–,–,5 (A herbicidal effect or phytotoxicity of 90% or more),5 (A herbicidal effect or phytotoxicity of 90% or more),5 (A herbicidal effect or phytotoxicity of 90% or more)
Cc1cccc(CS(=O)(=O)C2=NOC(C)(C)C2)c1 [Compound 1-6],5 (A herbicidal effect or phytotoxicity of 90% or more),5 (A herbicidal effect or phytotoxicity of 90% or more),5 (A herbicidal effect or phytotoxicity of 90% or more),4 (A herbicidal effect or phytotoxicity of 70% to less than 90%),–,–
CC1(C)CC(S(=O)(=O)Cc2cc(C(F)(F)F)cc(C(F)(F)F)c2)=NO1 [Compound 1-543],5 (A herbicidal effect or phytotoxicity of 90% or more),–,–,4 (A herbicidal effect or phytotoxicity of 70% to less than 90%),5 (A herbicidal effect or phytotoxicity of 90% or more),5 (A herbicidal effect or phytotoxicity of 90% or more)
CC1(C)CC(S(=O)(=O)Cc2c(Br)cccc2Br)=NO1 [Compound 1-554],5 (A herbicidal effect or phytotoxicity of 90% or more),–,–,5 (A herbicidal effect or phytotoxicity of 90% or more),5 (A herbicidal effect or phytotoxicity of 90% or more),5 (A herbicidal effect or phytotoxicity of 90% or more)
CCOc1cccc(C)c1CS(=O)(=O)C1=NOC(C)(C)C1 [Compound 1-602],5 (A herbicidal effect or phytotoxicity of 90% or more),–,–,4 (A herbicidal effect or phytotoxicity of 70% to less than 90%),5 (A herbicidal effect or phytotoxicity of 90% or more),5 (A herbicidal effect or phytotoxicity of 90% or more)
CC1(C)CC(S(=O)(=O)Cc2ccc(F)c(C(F)(F)F)c2)=NO1 [Compound 1-541],5 (A herbicidal effect or phytotoxicity of 90% or more),–,–,4 (A herbicidal effect or phytotoxicity of 70% to less than 90%),5 (A herbicidal effect or phytotoxicity of 90% or more),5 (A herbicidal effect or phytotoxicity of 90% or more)
CC1(C)CC(S(=O)(=O)Cc2ccccc2OC(F)F)=NO1 [Compound 1-55],5 (A herbicidal effect or phytotoxicity of 90% or more),5 (A herbicidal effect or phytotoxicity of 90% or more),5 (A herbicidal effect or phytotoxicity of 90% or more),4 (A herbicidal effect or phytotoxicity of 70% to less than 90%),–,–
Cc1cccc(CS(=O)(=O)C2=NOC(C)(C)C2)c1C [Compound 1-522],5 (A herbicidal effect or phytotoxicity of 90% or more),–,–,5 (A herbicidal effect or phytotoxicity of 90% or more),5 (A herbicidal effect or phytotoxicity of 90% or more),5 (A herbicidal effect or phytotoxicity of 90% or more)
CC1(C)CC(S(=O)(=O)Cc2c(F)c(F)c(F)c(F)c2F)=NO1 [Compound 1-531],5 (A herbicidal effect or phytotoxicity of 90% or more),–,–,5 (A herbicidal effect or phytotoxicity of 90% or more),5 (A herbicidal effect or phytotoxicity of 90% or more),5 (A herbicidal effect or phytotoxicity of 90% or more)
